{
  "source": "paper PMC10661773",
  "about": "“Cytotoxic pathways activated by multifunctional thiosemicarbazones targeting sigma-2 receptors in breast and lung carcinoma cells” (Pharmacological Reports, 2023)",
  "key": {"P-gp": {"molecular_target": "T1, P-gp (Homo sapiens, UniProt P08183)", "T1 construct": "expressed in transfected cells; host or cells: MDCK-MDR1", "T1 sequence (P08183 whole entry)": "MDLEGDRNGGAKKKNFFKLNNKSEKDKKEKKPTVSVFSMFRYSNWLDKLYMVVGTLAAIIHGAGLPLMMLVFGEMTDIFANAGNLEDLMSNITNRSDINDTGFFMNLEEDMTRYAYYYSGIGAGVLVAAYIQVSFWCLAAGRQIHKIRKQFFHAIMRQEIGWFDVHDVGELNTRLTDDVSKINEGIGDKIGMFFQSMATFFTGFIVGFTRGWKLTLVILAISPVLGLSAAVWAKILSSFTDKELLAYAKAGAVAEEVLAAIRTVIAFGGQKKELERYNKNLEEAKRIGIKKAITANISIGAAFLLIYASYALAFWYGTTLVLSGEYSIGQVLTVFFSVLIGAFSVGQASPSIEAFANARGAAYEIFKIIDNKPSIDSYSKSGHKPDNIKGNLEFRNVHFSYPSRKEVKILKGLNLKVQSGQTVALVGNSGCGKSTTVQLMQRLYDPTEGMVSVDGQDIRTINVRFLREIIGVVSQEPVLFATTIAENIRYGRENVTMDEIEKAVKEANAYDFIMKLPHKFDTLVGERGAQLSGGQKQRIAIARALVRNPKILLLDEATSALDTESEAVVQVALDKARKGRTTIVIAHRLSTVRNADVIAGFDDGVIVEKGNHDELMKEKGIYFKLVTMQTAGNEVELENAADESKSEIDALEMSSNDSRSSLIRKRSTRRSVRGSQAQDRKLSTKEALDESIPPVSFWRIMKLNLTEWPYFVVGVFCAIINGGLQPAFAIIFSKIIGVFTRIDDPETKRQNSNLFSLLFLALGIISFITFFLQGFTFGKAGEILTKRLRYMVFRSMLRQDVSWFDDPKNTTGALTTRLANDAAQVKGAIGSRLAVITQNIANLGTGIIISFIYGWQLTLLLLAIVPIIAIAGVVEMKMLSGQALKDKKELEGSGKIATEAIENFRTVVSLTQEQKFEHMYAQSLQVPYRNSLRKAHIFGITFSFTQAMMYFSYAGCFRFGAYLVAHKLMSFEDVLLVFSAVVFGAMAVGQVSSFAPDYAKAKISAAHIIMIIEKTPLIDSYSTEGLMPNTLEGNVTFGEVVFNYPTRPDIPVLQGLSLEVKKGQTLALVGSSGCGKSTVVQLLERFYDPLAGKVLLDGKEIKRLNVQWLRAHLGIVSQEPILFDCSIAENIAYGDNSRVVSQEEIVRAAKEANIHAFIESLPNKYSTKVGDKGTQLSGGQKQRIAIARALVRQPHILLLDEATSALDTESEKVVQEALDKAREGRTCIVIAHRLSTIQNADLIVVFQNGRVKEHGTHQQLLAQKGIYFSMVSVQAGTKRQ", "assay": "P-gp activity, Calcein-AM assay in MDCK-MDR1 cells", "type": "cell-based", "conditions": "read-out: P-gp Activity EC50 ± SEM", "description": "According to a previously reported procedure, MDCK-MDR1 cell lines (50,000 cells per well) were seeded into black CulturePlate 96/wells plate with […] medium and grown overnight to confluence. Aliquots (100 µL) of tested compounds in culture medium, at scalar concentrations ranging from 0,1 to 100 µM, were added to each well. The plate was incubated at 37 °C for 30 min, Calcein-AM in phosphate buffered saline (PBS, […]) was added to each well at a final concentration of […], and the plate was incubated for 30 min. The plate was washed 3 times with […] ice cold PBS, Saline buffer ([…]) was added to each well and the plate was read by a PerkinElmer Victor3 spectrofluorimeter at excitation and emission wavelengths of 485 nm and 535 nm, respectively. Under these conditions, calcein cell accumulation in the absence and in the presence of tested compounds was evaluated, and a fluorescence basal level was estimated by untreated cells. In treated wells, the increase of fluorescence with respect to the basal level was measured, EC50 values were determined by fitting the fluorescence increase percentage versus log[dose] with GraphPad Prism Software 5,0 (GraphPad Software, Inc,: San Diego, CA)."}, "caspase 3 in A549 cells": {"tested_on": "caspase 3 in A549 cells", "assay": "Caspase 3 activity, fluorimetric", "type": "cell-based, human", "conditions": "A549, 2 h, 50 µM", "description": "(§1) Activation of caspase 3, caspase 7 and caspase 9 was measured using the Caspase 3/7 Fluorescence Assay kit (Cayman Chemical, Ann Arbor, MI; #10,009,135) and the Caspase 9 fluorimetric assay kit (Enzo Life Science, Roma, Italy; #ALX-850-224). The results were expressed as nmoles of the hydrolyzed substrate of each caspase/mg cellular proteins, according to a previously set titration curve."}, "caspase 3 in MCF7 cells": {"tested_on": "caspase 3 in MCF7 cells", "assay": "Caspase 3 activity, fluorimetric", "type": "cell-based, human", "conditions": "MCF7, 2 h, 50 µM", "description": "as §1"}, "caspase 7 in A549 cells": {"tested_on": "caspase 7 in A549 cells", "assay": "Caspase 7 activity, fluorimetric", "type": "cell-based, human", "conditions": "A549, 2 h, 50 µM", "description": "as §1"}, "caspase 7 in MCF7 cells": {"tested_on": "caspase 7 in MCF7 cells", "assay": "Caspase 7 activity, fluorimetric", "type": "cell-based, human", "conditions": "MCF7, 2 h, 50 µM", "description": "as §1"}, "caspase 9 in A549 cells": {"tested_on": "caspase 9 in A549 cells", "assay": "Caspase 9 activity, fluorimetric", "type": "cell-based, human", "conditions": "A549, 2 h, 50 µM", "description": "as §1"}, "caspase 9 in MCF7 cells": {"tested_on": "caspase 9 in MCF7 cells", "assay": "Caspase 9 activity, fluorimetric", "type": "cell-based, human", "conditions": "MCF7, 2 h, 50 µM", "description": "as §1"}, "[1]": {"tested_on": "GRP78, ATF6, IRE1, PERK in A549 cells", "assay": "ER stress markers, qRT-PCR and immunoblotting", "type": "cell-based, human", "conditions": "A549, 2 h, 50 µM", "description": "(§2) 1 μg total RNA was reverse-transcribed using the iScript Reverse Transcription Supermix kit (Bio-Rad Laboratories, Hercules, CA; #1,708,840), according to the manufacturer’s instruction. 25 ng cDNA were amplified with 10 μL IQ™ SYBR Green Supermix (Bio-Rad Laboratories, # 1708880B05). Primers were designed with the qPrimer Depot software (http://primerdepot.nci.nih.gov/). qRT-PCR was carried out with a CFX96™ Real-Time Detector System (Bio-Rad Laboratories). Cycling conditions were: 30 s at 95 °C, followed by 40 cycles of denaturation (15 s at 95 °C), annealing/extension (30 s at 60 °C). The same cDNA preparation was used to quantify the genes of interest and the housekeeping gene S14, used to normalize gene expression. The relative quantitation of each sample was carried out using the Gene Expression Quantitation software (Bio-Rad Laboratories). Results were expressed in arbitrary units. For each gene, the expression in untreated cells was assumed to be “1”.\n(§3) Cells were rinsed with ice-cold lysis buffer (50 mM, Tris, 10 mM EDTA, 1% v/v Triton-X100), supplemented with the protease inhibitor cocktail set III (80 μM aprotinin, 5 mM bestatin, 1.5 mM leupeptin, 1 mM pepstatin; Sigma, # 535,140), 2 mM phenylmethylsulfonyl fluoride (Sigma: #P7626) and 1 mM Na3VO4, (Sigma; #S6508) then sonicated and centrifuged at 13,000 × g for 10 min at 4 °C. 20 μg protein extracts were subjected to SDS–PAGE and probed with the antibodies for: GRP78 (#ab21685), ATF6 (#ab122897), IRE-1 (#ab37073), PERK (#ab65142), actin (#ab1801) (all from Abcam, Cambridge, UK), followed by a peroxidase-conjugated secondary antibody (Bio-Rad Laboratories). The membranes were washed with Tris-buffered saline-Tween 0.1% v/v solution, and the proteins were detected by enhanced chemiluminescence (Bio-Rad Laboratories, #1,705,061). The densitometric analysis was performed using the ImageJ software (https://imagej.nih.gov/), calculating the ratio protein of interest/actin band density, putting actin band density as 1 relative unit in each condition. Densitometric analysis and whole blots are included as Supporting Information."}, "[2]": {"tested_on": "GRP78, ATF6, IRE1, PERK in MCF7 cells", "assay": "ER stress markers, qRT-PCR and immunoblotting", "type": "cell-based, human", "conditions": "MCF7, 2 h, 50 µM", "description": "as §2, §3"}, "sigma-2 receptors": {"molecular_target": "sigma-2 receptors (Homo sapiens, UniProt Q5BJF2)", "sequence (Q5BJF2 whole entry)": "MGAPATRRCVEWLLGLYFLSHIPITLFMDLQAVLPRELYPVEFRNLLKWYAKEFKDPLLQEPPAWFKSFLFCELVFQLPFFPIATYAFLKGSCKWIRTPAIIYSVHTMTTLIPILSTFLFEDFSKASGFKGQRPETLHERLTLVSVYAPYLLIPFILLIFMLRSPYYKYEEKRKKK", "conditions": "read-out: Sigma-2 Affinity Ki; cited from earlier work"}},
  "data": [
    {"smiles": "CN(C)C(=S)N/N=C1\\C(=O)N(CCCCN2CCC3(CC2)OCc2ccccc23)c2ccccc21", "note": "[FA4, (Z)-2-(1-(4-(3H-spiro[isobenzofuran-1,4′-piperidine]-1′-yl)butyl)-2-oxoindolin-3-ylidene)-N,N-dimethylhydrazinecarbothioamide]", "values": [
      {"measurement": "EC50", "setting": "P-gp", "result": 3800, "unit": "nM"},
      {"measurement": "Caspase 3 activation", "setting": "caspase 3 in A549 cells", "result": "most potent inducer of caspase 3 in both cell lines"},
      {"measurement": "Caspase 3 activation", "setting": "caspase 3 in MCF7 cells", "result": "most potent inducer of caspase 3 in both cell lines"},
      {"measurement": "Caspase 7 activation", "setting": "caspase 7 in A549 cells", "result": "activate"},
      {"measurement": "Caspase 7 activation", "setting": "caspase 7 in MCF7 cells", "result": "activate"},
      {"measurement": "Caspase 9 activation", "setting": "caspase 9 in A549 cells", "result": "activate"},
      {"measurement": "Caspase 9 activation", "setting": "caspase 9 in MCF7 cells", "result": "activate"},
      {"measurement": "Rank order of caspase 9 activation", "setting": "caspase 9 in MCF7 cells", "result": "FA4 > MLP44 > PS3 > ACThio1"},
      {"measurement": "Expression of ER stress markers GRP78, ATF6, IRE1, PERK", "setting": "[1]", "result": "increased"},
      {"measurement": "Expression of ER stress markers GRP78, ATF6, IRE1, PERK", "setting": "[2]", "result": "increased"},
      {"measurement": "Ki", "setting": "sigma-2 receptors", "result": 15.8, "unit": "nM"}
    ]}
  ]
}
